In patent publication US9321756B2, “Azole compounds as PIM inhibitors” (priority 2011, dated 2016) one finds IC50 data, which are given here for 22 compounds.

The test system of experiment [1] is Pim-2 stably transfected U2OS human osteogenic sarcoma line. Put plainly: Pim cell assay U2OS (phospho-BAD normalized against total BAD), Pim-2 transfected. The conditions noted are these: Homo sapiens, read-out: U2OS Pim2_Cell_IC50. Format: cell-based.
Experiment [2] deals with full length recombinant Pim-3 (Homo sapiens (Human), UniProt Q86V86). Put plainly: Pim enzyme assay (HTRF, phosphorylation of biotinylated-BAD (S112) peptide), Pim-3. The experiment is classed as biochemical. The conditions noted are these: read-out: Pim3 IC50. A digest of the protocol:
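IC50 values were fitted with a 4-parameter logistic model to percent-of-control HTRF signal (Eu anti-phospho-BAD S112 antibody/streptavidin-APC). Reactions used full-length Pim-3 and biotin-BAD (S112) peptide, ran 1 h 30 min at RT (22 °C) in Hepes pH 7.0 buffer with BSA and DTT, and were stopped by 3 mM EDTA.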

Experiment [3] concerns Pim-1 stably transfected U2OS human osteogenic sarcoma line. Kind of experiment: Pim cell assay U2OS (phospho-BAD normalized against total BAD), Pim-1 transfected. Conditions: Homo sapiens, U2OS. Format: cell-based.
Experiment [4] has as its target full length recombinant Pim-2 (Homo sapiens (Human), UniProt Q9P1W9). Put plainly: Pim enzyme assay (HTRF, phosphorylation of biotinylated-BAD (S112) peptide), Pim-2. The experiment is classed as biochemical. The conditions noted are these: read-out: Pim2_IC50. On the technique in general: Time-resolved FRET reads energy transfer from a long-lived donor to a nearby acceptor.

For experiment [5], the target named is full length recombinant Pim-1 (Homo sapiens (Human), UniProt P11309). Kind of experiment: Pim enzyme assay (HTRF, phosphorylation of biotinylated-BAD (S112) peptide), Pim-1. Format: biochemical. The conditions noted are these: read-out: Pim_1_IC50.
full length recombinant Pim-1, sequence (P11309 whole entry): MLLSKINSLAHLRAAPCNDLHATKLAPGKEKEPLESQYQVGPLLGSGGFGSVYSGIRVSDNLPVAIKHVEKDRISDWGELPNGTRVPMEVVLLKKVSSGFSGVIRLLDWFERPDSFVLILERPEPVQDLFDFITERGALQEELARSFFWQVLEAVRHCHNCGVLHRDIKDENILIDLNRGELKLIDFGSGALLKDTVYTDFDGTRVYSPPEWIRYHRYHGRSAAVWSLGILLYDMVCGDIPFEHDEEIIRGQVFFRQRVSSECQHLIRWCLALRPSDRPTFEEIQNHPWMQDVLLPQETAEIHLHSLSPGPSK
The mark [6] stands for this setting: read-out: U2OS Pim1_Cell_IC50, U2OS cells, Pim-1 transfected.

Read-outs that look alike come from different tables or passages of the source.

full length recombinant Pim-2, sequence (Q9P1W9 whole entry): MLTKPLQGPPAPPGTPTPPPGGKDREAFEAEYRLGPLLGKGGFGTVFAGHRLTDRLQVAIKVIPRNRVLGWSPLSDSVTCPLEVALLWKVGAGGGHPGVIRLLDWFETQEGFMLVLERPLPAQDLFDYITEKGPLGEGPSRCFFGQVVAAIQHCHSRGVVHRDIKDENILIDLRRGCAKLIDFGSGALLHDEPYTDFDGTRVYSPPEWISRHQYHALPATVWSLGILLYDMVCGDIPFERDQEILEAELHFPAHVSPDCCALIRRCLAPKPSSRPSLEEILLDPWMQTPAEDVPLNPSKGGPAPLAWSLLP

Regarding `CC(C)Nc1cncc(-c2c[nH]c3ccc(-c4nnc(N)o4)cc23)n1` [Example 101, 6-(5-(5-amino-1,3,4-oxadiazol-2-yl)-1H-indol-3-yl)-N-(1-methylethyl)-2-pyrazinamine], the IC50 was 809 nM in experiment [1] (U2OS cells, Pim-2 transfected); 0.901 nM in experiment [2] (Pim-3 enzyme assay); 66.4 nM in experiment [3] (setting [6]); 4.03 nM in experiment [4] (Pim-2 enzyme assay); 1.5 nM in experiment [5] (Pim-1 enzyme assay).

For `Cc1ccn(-c2cccc(-c3c[nH]c4ccc(-c5nnc(N)s5)cc34)n2)n1` [Example 179, 5-(3-(6-(3-methyl-1H-pyrazol-1-yl)-2-pyridinyl)-1H-indol-5-yl)-1,3,4-thiadiazol-2-amine], the IC50 in experiment [1] (U2OS cells, Pim-2 transfected) was more than 31600 nM; in experiment [2] (Pim-3 enzyme assay) it was 24.1 nM; in experiment [3] (read-out: U2OS Pim1_Cell_IC50) it was 816 nM; in experiment [4] (Pim-2 enzyme assay), 64.6 nM; in experiment [5] (Pim-1 enzyme assay) it was 77 nM.

Take `Nc1nnc(-c2ccc3[nH]cc(-c4ccnc(N5CCOCC5)n4)c3c2)s1` [Example 133, 5-(3-(2-(4-morpholinyl)-4-pyrimidinyl)-1H-indol-5-yl)-1,3,4-thiadiazol-2-amine]: the IC50 amounted to 8060 nM in experiment [1] (U2OS cells, Pim-2 transfected); 4 nM in experiment [2] (Pim-3 enzyme assay); 535 nM in experiment [3] (setting [6]); 19.4 nM in experiment [4] (Pim-2 enzyme assay); 13.4 nM in experiment [5] (Pim-1 enzyme assay).

As to `c1cc2[nH]cc(-c3cncc(C4CC4)n3)c2cc1-c1nnc(NC2CNC2)o1` [Example 247, N-3-azetidinyl-5-(3-(6-cyclopropyl-2-pyrazinyl)-1H-indol-5-yl)-1,3,4-oxadiazol-2-amine], the IC50 in experiment [1] (U2OS cells, Pim-2 transfected) was more than 31600 nM; in experiment [2] (Pim-3 enzyme assay), 0.346 nM; in experiment [3] (read-out: U2OS Pim1_Cell_IC50), 1940 nM; in experiment [4] (Pim-2 enzyme assay), 1.05 nM; in experiment [5] (Pim-1 enzyme assay), 1.34 nM.

Regarding `COc1cncc(-c2c[nH]c3ccc(-c4nnc(N)s4)cc23)n1` [Example 212, 5-(3-(6-methoxy-2-pyrazinyl)-1H-indol-5-yl)-1,3,4-thiadiazol-2-amine], the IC50 in experiment [1] (U2OS cells, Pim-2 transfected) was more than 31600 nM; in experiment [2] (Pim-3 enzyme assay) it was 14.9 nM; in experiment [3] (read-out: U2OS Pim1_Cell_IC50) it was 177 nM; in experiment [4] (Pim-2 enzyme assay), 30.2 nM; in experiment [5] (Pim-1 enzyme assay) it was 38.3 nM.

With `CNc1nnc(-c2ccc3[nH]cc(-c4ccc5c(c4)OC(C)(C)C5)c3c2)s1` [Example 216, 5-(3-(2,2-dimethyl-2,3-dihydro-1-benzofuran-6-yl)-1H-indol-5-yl)-N-methyl-1,3,4-thiadiazol-2-amine], the IC50 in experiment [1] (U2OS cells, Pim-2 transfected) was more than 31600 nM; in experiment [2] (Pim-3 enzyme assay), 91.5 nM; in experiment [3] (read-out: U2OS Pim1_Cell_IC50), 1770 nM; in experiment [4] (Pim-2 enzyme assay) it was 1840 nM; in experiment [5] (Pim-1 enzyme assay), 187 nM.

In the case of `Nc1nnc(-c2ccc3[nH]cc(-c4cncc(N5CCOCC5)n4)c3c2)o1` [Example 90, 5-(3-(6-(4-morpholinyl)-2-pyrazinyl)-1H-indol-5-yl)-1,3,4-oxadiazol-2-amine], the IC50 was determined as 5420 nM in experiment [1] (U2OS cells, Pim-2 transfected); 6.46 nM in experiment [2] (Pim-3 enzyme assay); 374 nM in experiment [3] (read-out: U2OS Pim1_Cell_IC50); 13.4 nM in experiment [4] (Pim-2 enzyme assay); 8.91 nM in experiment [5] (Pim-1 enzyme assay).

Regarding `Cc1nnc(-c2ccc3[nH]cc(-c4cccc(OC(C)C)n4)c3c2)o1` [Example 42, 2-(3-(6-isopropoxypyridin-2-yl)-1H-indol-5-yl)-5-methyl-1,3,4-oxadiazole], the IC50 in experiment [1] (U2OS cells, Pim-2 transfected) was found to be 15600 nM; in experiment [2] (Pim-3 enzyme assay) it was 10 nM; in experiment [3] (read-out: U2OS Pim1_Cell_IC50), 273 nM; in experiment [4] (Pim-2 enzyme assay) it was 38.6 nM; in experiment [5] (Pim-1 enzyme assay), 21.2 nM.

Regarding `CC(C)Oc1cncc(-c2c[nH]c3ccc(-c4nnc(N)s4)cc23)n1` [Example 159, 5-(3-(6-(1-methylethoxy)-2-pyrazinyl)-1H-indol-5-yl)-1,3,4-thiadiazol-2-amine], the IC50 is 2220 nM in experiment [1] (U2OS cells, Pim-2 transfected); 3 nM in experiment [2] (Pim-3 enzyme assay); 91.9 nM in experiment [3] (setting [6]); 16.6 nM in experiment [4] (Pim-2 enzyme assay); 8.2 nM in experiment [5].

Turning to `Nc1nnc(-c2ccc3[nH]cc(-c4cccc(N5CCOCC5)n4)c3c2)o1` [Example 6, 5-(3-(6-morpholinopyridin-2-yl)-1H-indol-5-yl)-1,3,4-oxadiazol-2-amine], the IC50 in experiment [1] (U2OS cells, Pim-2 transfected) came out at 2110 nM; in experiment [2] (Pim-3 enzyme assay), 5.74 nM; in experiment [3] (setting [6]) it was 61.9 nM; in experiment [4] (Pim-2 enzyme assay) it was 20.8 nM; in experiment [5] (Pim-1 enzyme assay) it was 5.91 nM.

With `CC(C)Oc1cncc(-c2c[nH]c3ccc(-c4nnc(N)o4)cc23)n1` [Example 76, 5-(3-(6-(1-methylethoxy)-2-pyrazinyl)-1H-indol-5-yl)-1,3,4-oxadiazol-2-amine], the IC50 in experiment [1] (U2OS cells, Pim-2 transfected) is 636 nM; in experiment [2] (Pim-3 enzyme assay), 2.47 nM; in experiment [3] (read-out: U2OS Pim1_Cell_IC50), 35.8 nM; in experiment [4] (Pim-2 enzyme assay) it was 5.18 nM; in experiment [5] (Pim-1 enzyme assay) it was 5.59 nM.

As for `CNc1nnc(-c2ccc3[nH]cc(-c4ccnc(N5CCOCC5)n4)c3c2)s1` [Example 129, N-methyl-5-(3-(2-(4-morpholinyl)-4-pyrimidinyl)-1H-indol-5-yl)-1,3,4-thiadiazol-2-amine], the IC50 in experiment [1] (U2OS cells, Pim-2 transfected) was more than 31600 nM; in experiment [2] (Pim-3 enzyme assay), 12.3 nM; in experiment [3] (setting [6]) it was 982 nM; in experiment [4] (Pim-2 enzyme assay) it was 82.4 nM; in experiment [5] (Pim-1 enzyme assay), 31.3 nM.

Consider `Nc1nnc(-c2ccc3[nH]cc(-c4cncc(-c5ccccc5)n4)c3c2)o1` [Example 115, 5-(3-(6-phenyl-2-pyrazinyl)-1H-indol-5-yl)-1,3,4-oxadiazol-2-amine], for which the IC50 in experiment [1] (U2OS cells, Pim-2 transfected) was more than 31600 nM; in experiment [2] (Pim-3 enzyme assay), 5.36 nM; in experiment [3] (read-out: U2OS Pim1_Cell_IC50), 105 nM; in experiment [4] (Pim-2 enzyme assay), 14 nM; in experiment [5] (Pim-1 enzyme assay) it was 9.23 nM.

`Nc1nnc(-c2ccc3[nH]cc(-c4cncc(NCC5CC5)n4)c3c2)o1` [Example 100, 6-(5-(5-amino-1,3,4-oxadiazol-2-yl)-1H-indol-3-yl)-N-(cyclopropylmethyl)-2-pyrazinamine]: the IC50 in experiment [1] (U2OS cells, Pim-2 transfected) came out at 551 nM; in experiment [2] (Pim-3 enzyme assay), 0.668 nM; in experiment [3] (read-out: U2OS Pim1_Cell_IC50) it was 41.7 nM; in experiment [4] (Pim-2 enzyme assay) it was 2.07 nM; in experiment [5] (Pim-1 enzyme assay), 1.16 nM.

As for `Nc1nnc(-c2ccc3[nH]cc(-c4nccc(-c5ccccc5)n4)c3c2)o1` [Example 122, 5-(3-(4-phenyl-2-pyrimidinyl)-1H-indol-5-yl)-1,3,4-oxadiazol-2-amine], the IC50 in experiment [1] (U2OS cells, Pim-2 transfected) was 831 nM; in experiment [2] (Pim-3 enzyme assay) it was 2.4 nM; in experiment [3] (setting [6]), 132 nM; in experiment [4] (Pim-2 enzyme assay), 3.87 nM; in experiment [5] (Pim-1 enzyme assay), 6.85 nM.

On to `CNc1nnc(-c2ccc3[nH]cc(-c4ccccc4F)c3c2)s1` [Example 235, 5-(3-(2-fluorophenyl)-1H-indol-5-yl)-N-methyl-1,3,4-thiadiazol-2-amine], for which the IC50 in experiment [1] (U2OS cells, Pim-2 transfected) is more than 31600 nM; in experiment [2] (Pim-3 enzyme assay), 62.8 nM; in experiment [3] (read-out: U2OS Pim1_Cell_IC50) it was 5390 nM; in experiment [4] (Pim-2 enzyme assay), 782 nM; in experiment [5] (Pim-1 enzyme assay), 228 nM.

As to `CCOc1cccc(-c2c[nH]c3ccc(-c4nnc(NC)s4)cc23)n1` [Example 230, 5-(3-(6-ethoxy-2-pyridinyl)-1H-indol-5-yl)-N-methyl-1,3,4-thiadiazol-2-amine], the IC50 in experiment [1] (U2OS cells, Pim-2 transfected) is more than 31600 nM; in experiment [2] (Pim-3 enzyme assay), 7.13 nM; in experiment [3] (read-out: U2OS Pim1_Cell_IC50) it was 912 nM; in experiment [4] (Pim-2 enzyme assay) it was 63.1 nM; in experiment [5] (Pim-1 enzyme assay), 30.9 nM.

Take `Nc1nnc(-c2ccc3[nH]cc(-c4cncc(-c5cccc(Cl)c5)n4)c3c2)o1` [Example 120, 5-(3-(6-(3-chlorophenyl)-2-pyrazinyl)-1H-indol-5-yl)-1,3,4-oxadiazol-2-amine]: the IC50 in experiment [1] (U2OS cells, Pim-2 transfected) is more than 31600 nM; in experiment [2] (Pim-3 enzyme assay), 4.23 nM; in experiment [3] (read-out: U2OS Pim1_Cell_IC50), 242 nM; in experiment [4] (Pim-2 enzyme assay), 22.9 nM; in experiment [5] (Pim-1 enzyme assay), 9.41 nM.

On to `Nc1nnc(-c2ccc3[nH]cc(-c4cccc(-n5cccn5)n4)c3c2)o1` [Example 77, 5-(3-(6-(1H-pyrazol-1-yl)-2-pyridinyl)-1H-indol-5-yl)-1,3,4-oxadiazol-2-amine], for which the IC50 came to 1890 nM in experiment [1] (U2OS cells, Pim-2 transfected); 4.13 nM in experiment [2] (Pim-3 enzyme assay); 112 nM in experiment [3] (setting [6]); 13.7 nM in experiment [4] (Pim-2 enzyme assay); 11.9 nM in experiment [5] (Pim-1 enzyme assay).

For the compound `Cn1cc(-c2cncc(-c3c[nH]c4ccc(-c5nnc(N)o5)cc34)n2)cn1` [Example 121, 5-(3-(6-(1-methyl-1H-pyrazol-4-yl)-2-pyrazinyl)-1H-indol-5-yl)-1,3,4-oxadiazol-2-amine], the IC50 is more than 31600 nM in experiment [1] (U2OS cells, Pim-2 transfected); 5.54 nM in experiment [2] (Pim-3 enzyme assay); 3140 nM in experiment [3] (read-out: U2OS Pim1_Cell_IC50); 34.6 nM in experiment [4] (Pim-2 enzyme assay); 19 nM in experiment [5] (Pim-1 enzyme assay).

Take `CC(C)Cn1cc(-c2c[nH]c3ccc(-c4nnc(N)o4)cc23)cn1` [Example 80, 5-(3-(1-(2-methylpropyl)-1H-pyrazol-4-yl)-1H-indol-5-yl)-1,3,4-oxadiazol-2-amine]: the IC50 in experiment [1] (U2OS cells, Pim-2 transfected) turned out to be 3660 nM; in experiment [2] (Pim-3 enzyme assay), 67.1 nM; in experiment [3] (read-out: U2OS Pim1_Cell_IC50), 142 nM; in experiment [4] (Pim-2 enzyme assay), 78 nM; in experiment [5] (Pim-1 enzyme assay), 47 nM.

In the case of `CC(C)Oc1cccc(-c2c[nH]c3ccc(-c4nnc(N5CC[C@@H](N)C5)s4)cc23)n1` [Example 33, (R)-1-(5-(3-(6-Isopropoxypyridin-2-yl)-1H-indol-5-yl)-1,3,4-thiadiazol-2-yl)pyrrolidin-3-amine 2,2,2-trifluoroacetate], the IC50 in experiment [1] (U2OS) amounted to 19500 nM; in experiment [2] it was 1.32 nM; in experiment [3] (setting [6]) it was 328 nM; in experiment [4], 16.7 nM; in experiment [5] (Pim-1 enzyme assay), 8.84 nM.
